Molecules are shown by their SMILES.

The assay relates to HUVECs. In words: Thrombin induced stress fiber formation in endothelial cells. The format is cell-based, human. The settings on record: aminosterol 20 μM, thrombin 20 ng/ml, 2 hours. The method, then:
The basic methods have been published (Williams, […] et al. 2001). HUVECs were grown on fibronectin-covered coverslips in EGM medium. […] Following a rinse, the cells were exposed to a 1:400 dilution of an FITC-goat antimurine antibody and 250 ng/ml TRITC phalloidin. The stained coverslips were visualized by fluorescence microscopy.
For the compound `CC(C)[C@@H](CC[C@@H](C)[C@H]1CC[C@H]2[C@@H]3[C@@H](O)C[C@H]4C[C@@H](NCCCNCCCCN)CC[C@]4(C)[C@H]3CC[C@]12C)OS(=O)(=O)O` [Compound A], the “Disruption of thrombin induced stress fiber formation” value (“Disruption” below) is “disrupt thrombin induced stress fiber formation and inhibited thrombin-induced stress fiber formation and Yes”. Consider `CC(C)[C@@H](CC[C@@H](C)[C@H]1CC[C@H]2[C@@H]3[C@H](O)C[C@H]4C[C@H](NCCCNCCCCN)CC[C@]4(C)[C@H]3CC[C@]12C)OS(=O)(=O)O` [Compound B], for which the “Disruption” value was “disrupt thrombin induced stress fiber formation and inhibited thrombin-induced stress fiber formation and Yes”. The same measure for `CC(C)[C@H](CC[C@@H](C)[C@H]1CC[C@H]2[C@@H]3[C@H](O)C[C@H]4C[C@@H](NCCCNCCCCN)CC[C@]4(C)[C@H]3CC[C@]12C)OS(=O)(=O)O` [Compound C]: “disrupt thrombin induced stress fiber formation and inhibited thrombin-induced stress fiber formation and Yes”; for `CC(C)[C@@H](CC[C@H](C)[C@H]1CC[C@H]2[C@@H]3[C@H](O)C[C@H]4C[C@@H](NCCCNCCCCN)CC[C@]4(C)[C@H]3CC[C@]12C)OS(=O)(=O)O` [Compound D]: “not observed and inactive and No”.

In the case of `CC(C)[C@@H](CC[C@@H](C)[C@H]1CC[C@H]2[C@@H]3[C@H](O)C[C@H]4CC(N)CC[C@]4(C)[C@H]3CC[C@]12C)OS(=O)(=O)O` (stereo partly drawn) [Compound E], the “Disruption” value was “not observed and No”. Regarding `CC(C)[C@@H](CC[C@@H](C)[C@H]1CC[C@H]2[C@@H]3[C@H](O)C[C@H]4C[C@@H](NCCCOCCCN)CC[C@]4(C)[C@H]3CC[C@]12C)OS(=O)(=O)O` [Compound F], the “Disruption” value was “not observed and No”.

The values above are taken from US20200000825A1, “METHODS AND COMPOSITIONS FOR TREATING AND PREVENTING VIRAL INFECTIONS” (ENTERIN LABORATORIES, INC., priority 2009, published 2020).
